In patent US7576082B2, “Oxindole derivatives” (Hoffman-La Roche Inc., priority 2005, dated 2009):
pIC50: −log10 of the molar value.

Target: interaction between p53 and MDM2 proteins (Homo sapiens, UniProt Q00987)
Test: HTRF assay of inhibition of the interaction between p53 and MDM2 proteins (GST-MDM2 / biotinylated p53 peptide)
Assay type: binding
Settings: recombinant GST-tagged MDM2, biotinylated p53 peptide, 37° C. for 1 h
Protocol: […], the ability of the compounds to inhibit the interaction between p53 and MDM2 proteins was measured.
The ability of the compounds to inhibit the interaction between p53 and MDM2 proteins was measured by an HTRF (homogeneous time-resolved fluorescence) assay in which recombinant GST-tagged MDM2 binds to a peptide that resembles the MDM2-interacting region of p53 (Lane et al.). Binding of GST-MDM2 protein and p53-peptide (biotinylated on its N-terminal end) is registered by the FRET (fluorescence resonance energy transfer) between Europium (Eu)-labeled anti-GST antibody and streptavidin-conjugated Allophycocyanin (APC).
Test is performed in black flat-bottom 384-well plates (Costar) in a total volume of 40 uL containing: 90 nM biotinylate peptide, 160 ng/ml GST-MDM2, 20 nM streptavidin-APC (PerkinElmerWallac), 2 nM Eu-labeled anti-GST-antibody (PerkinElmerWallac), 0.2% bovine serum albumin (BSA), 1 mM dithiothreitol (DTT) and 20 mM Tris-borate saline (TBS) buffer as follows: Add 10 uL of GST-MDM2 (640 ng/ml working solution) in reaction buffer to each well. Add 10 uL diluted compounds (1:5 dilution in reaction buffer) to each well, mix by shaking. Add 20 uL biotinylated p53 peptide (180 nM working solution) in reaction buffer to each well and mix on shaker. Incubate at 37° C. for 1 h. Add 20 uL streptavidin-APC and Eu-anti-GST antibody mixture (6 nM Eu-anti-GST and 60 nM streptavidin-APC working solution) in TBS buffer with 0.2% BSA, shake at room temperature for 30 minutes and read using a TRF-capable plate reader at 665 and 615 nm (Victor 5, Perkin ElmerWallac). If not specified, the reagents were purchased from Sigma Chemical Co.

interaction between p53 and MDM2 proteins, sequence (Q00987 whole entry): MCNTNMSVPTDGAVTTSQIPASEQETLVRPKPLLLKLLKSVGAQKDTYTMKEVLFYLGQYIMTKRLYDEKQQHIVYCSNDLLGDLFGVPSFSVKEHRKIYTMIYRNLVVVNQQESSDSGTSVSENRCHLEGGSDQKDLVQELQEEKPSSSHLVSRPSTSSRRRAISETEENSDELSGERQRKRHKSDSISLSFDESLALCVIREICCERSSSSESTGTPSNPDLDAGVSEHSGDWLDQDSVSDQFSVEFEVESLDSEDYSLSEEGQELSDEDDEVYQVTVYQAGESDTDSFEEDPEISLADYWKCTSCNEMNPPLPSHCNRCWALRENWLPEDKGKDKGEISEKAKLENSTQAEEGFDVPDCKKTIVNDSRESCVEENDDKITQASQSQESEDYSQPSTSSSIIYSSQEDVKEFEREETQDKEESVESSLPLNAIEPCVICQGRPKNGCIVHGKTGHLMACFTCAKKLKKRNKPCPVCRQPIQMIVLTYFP

First: COc1cccc(C2(Cc3ccccc3)C(=O)Nc3cc(Cl)ccc32)c1 (racemic) [Example 6C, rac-3-Benzyl-6-chloro-3-(3-methoxy-phenyl)-1,3-dihydro-indol-2-one]
Second: COc1cccc(C2(Cc3cccc(Cl)c3)C(=O)Nc3cc(Cl)ccc32)c1 (racemic) [Example 9, rac-6-Chloro-3-(3-chloro-benzyl)-3-(3-methoxy-phenyl)-1,3-dihydro-indol-2-one]
The pIC50 of the first is 1.32 log units lower: 5.02 for the first, 6.34 for the second. The second is the more potent here.

First: O=C1Nc2cc(Cl)ccc2C1(Cc1ccccc1)C1CCCC1 (racemic) [Example 3C, rac-3-Benzyl-6-chloro-3-cyclopentyl-1,3-dihydro-indol-2-one]
Second: COc1cccc([C@]2(Cc3cccc(Cl)c3)C(=O)Nc3cc(Cl)ccc32)c1 (single isomer, unassigned) [Example 13]
The pIC50 of the first is 1.28 log units lower: 5.27 for the first, 6.55 for the second.
